Values quoted from earlier work in patent US10858388B2, “Selective progesterone receptor modulator (SPRM) regimen” (BAYER PHARMA AKTIENGESELLSCHAFT, priority 2015, dated 2020).

Tests used:
endometrium = settings: relatively low concentration, WO2009/134178; cited from earlier work
[1] = system: women with excessive uterine bleeding due to the presence of fibroids; settings: 5 mg Ulipristal Acetate, cited from earlier work
fibroids = settings: in vivo; cited from earlier work

SMILES: COCC(=O)[C@@]1(OC(C)=O)CC[C@H]2[C@@H]3CCC4=CC(=O)CCC4=C3[C@@H](c3ccc(N(C)C)cc3)C[C@@]21C [CDB-4124]
- Endometrium during treatment (endometrium): substantial thickening of the endometrium

SMILES: CC(=O)O[C@]1(C(C)=O)CC[C@H]2[C@@H]3CCC4=CC(=O)CCC4=C3[C@@H](c3ccc(N(C)C)cc3)C[C@@]21C [Ulipristal Acetate]
- ≤2 ml, indicating Amenorrhea - (%), EoT 13 Weeks ([1]; 13 weeks): 75%
- ≤2 ml, indicating Amenorrhea - no./total no., EoT 13 Weeks ([1]; 13 weeks): 70/93
- Amenorrhea (<2 ml) at EoT (%) 12 Weeks ([1]; data from Jacques Donnez et al): ~75%

SMILES: CC#C[C@]1(O)CC[C@H]2[C@@H]3CCC4=CC(=O)CCC4=C3[C@@H](c3ccc(N(C)C)cc3)C[C@@]21C [mifepristone]
- Size of fibroids and related symptoms (fibroids): decrease the size of fibroids and related symptoms
